Experimental data taken from patent publication US20150177202A1, “ODOR THRESHOLD TEST” (University of Tennessee Research Foundation, priority 2013, published 2015).
Several values for one entry are separate records, joined by “and”; a condition that tells them apart may be missing. Equal entries are not always repeated.

Experiments:
[1] = tested on: trigeminal nerve; settings: cited from earlier work
[2] = tested on: olfactory system; experiment: WUTC Odor Threshold Test (yes-no detection of odorant dilutions in water, signal detection analysis); assay type: in vivo, human; set-up: Estimated odorant threshold, Mean / Mean estimated threshold / Estimated odorant threshold, Minimum: unit not given here; settings: for Threshold: combined trials of all 33 subjects, logistic regression, p=0.5; for Estimated threshold compared with literature value: in vivo; for Estimated odorant threshold, Maximum: maximum of individual participant thresholds, in ppm; for Estimated odorant threshold, Mean: mean of individual participant thresholds; for Estimated odorant threshold, Minimum: minimum of individual participant thresholds
Source text: The present study involved the creation and study of a new test of olfactory ability, deemed the Wheeler University of Tennessee, Chattanooga (WUTC) Odor Threshold Test. This test was developed building upon the methodology behind signal detection theory as it allowed for multiple measures of olfactory ability to be calculated from a single test. These measures are sensitivity, response-bias, and threshold. Unlike currently available threshold tests, the WUTC Odor Threshold Test utilizes a randomized, multiple odor administration along with the presentation of blank concentrations.
A total of thirty three participants (N=33), collected from the UTC campus, were administered the WUTC threshold test.
To make the test, odorant molecules were first dissolved in a purified H2O solvent following their individual levels of solubility to create standard solutions. These standards were the highest concentration for each odorant and the base from which all successive dilutions were made. Liquid odorants ethanol, pinene, and isoamyl acetate were diluted by volume whereas para-cresol and vanillin were diluted by mass. Each standard was rounded to the nearest μL. A total of nine concentrations were made from each standard solution and diluted at a ratio of 1:2. The highest concentration for each odor as well as concentration ranges were chosen based on literature threshold values and a small, preliminary testing period. Solutions (10 mL) of each odorant were diluted and contained in sterilized and dried glass vials with black, screw-top lids (see FIG. 12).
Blanks were made using 10 mL of the same purified H2O used as a solvent for the other odorants. The final test contained 45 vials with odorant concentrations and nine blanks for a total of 54 vials. Tests were remade after either one month or ten administrations had been reached to avoid any amount of loss of odor strength that could result from extended shelf time or exposure to air during administrations. Before reproducing the test, vials underwent sterilization and drying procedures.
Each subject was instructed to complete the provided demographic form (see below). […] Each participant was then seated in a cushioned, high backed chair facing away from a table where each testing vial was placed. In a brief tutorial to the test, subjects were instructed that they would be presented with a number of vials, some containing odors and some not, one at a time. Subjects were then told that they would only be required to smell the contents of the vial and verbally give a “yes” or “no” answer as to whether they detected anything. […] Once the subject felt comfortable with the instructions presented in this tutorial, the actual test was started.
Following a randomly generated number sequence for each subject, a seated test administrator would select the correspondingly numbered test vial for each trial, place it in tongs, and hand it to a second administrator that, like the participant, was facing away from the administration table. […] The “yes” or “no” response given by the subject was recorded by the first administrator and the vial and tongs were returned to him/her by the second administrator. This procedure was repeated for each of the odorant tubes in the test with each tube presented to the participant twice.

[3] = tested on: premature newborn infants; settings: olfactory stimulation; cited from earlier work
[4] = concentration 1 (lowest), combined participant trials
[5] = concentration 2, combined participant trials
[6] = concentration 3, combined participant trials
[7] = concentration 4, combined participant trials
[8] = concentration 5, combined participant trials
[9] = concentration 6, combined participant trials
[10] = concentration 7, combined participant trials
[11] = concentration 8, combined participant trials
[12] = concentration 9 (highest), combined participant trials

SMILES: CC1=CCC2CC1C2(C)C [Pinene, L-α-pinene]
- Activity as an irritant [1]: nearly inactive as an irritant
- Threshold [2]: 275.598 ppm
- Mean A′ [2, 4]: 0.407
- Mean d′ [2, 4]: −0.249
- Mean A′ [2, 5]: 0.757
- Mean d′ [2, 5]: 0.898
- Mean A′ [2, 6]: 0.561
- Mean d′ [2, 6]: 0.16
- Mean A′ [2, 7]: 0.514
- Mean d′ [2, 7]: 0.035
- Mean A′ [2, 8]: 0.668
- Mean d′ [2, 8]: 0.513
- Mean A′ [2, 9]: 0.724
- Mean d′ [2, 9]: 0.742
- Mean A′ [2, 10]: 0.847
- Mean d′ [2, 10]: 1.458
- Mean A′ [2, 11]: 0.901
- Mean d′ [2, 11]: 2.097
- Mean A′ [2, 12]: 0.875
- Mean d′ [2, 12]: 1.72
- Estimated threshold compared with literature value [2]: greater than values found
- Estimated odorant threshold, Maximum [2]: 795.338
- Estimated odorant threshold, Mean [2]: 251.225
- Estimated odorant threshold, Minimum [2]: 0.778

SMILES: COc1cc(C=O)ccc1O [Vanillin, vanillin]
- Threshold [2]: 112.426 ppm
- Mean A′ [2, 4]: 0.39
- Mean d′ [2, 4]: −0.302
- Mean A′ [2, 5]: 0.478
- Mean d′ [2, 5]: −0.053
- Mean A′ [2, 6]: 0.531
- Mean d′ [2, 6]: 0.077
- Mean A′ [2, 7]: 0.625
- Mean d′ [2, 7]: 0.359
- Mean A′ [2, 8]: 0.561
- Mean d′ [2, 8]: 0.16
- Mean A′ [2, 9]: 0.678
- Mean d′ [2, 9]: 0.55
- Mean A′ [2, 10]: 0.781
- Mean d′ [2, 10]: 1.024
- Mean A′ [2, 11]: 0.796
- Mean d′ [2, 11]: 1.11
- Mean A′ [2, 12]: 0.888
- Mean d′ [2, 12]: 1.885
- Estimated threshold compared with literature value [2]: greater than values found
- Estimated odorant threshold, Maximum [2]: 339.932
- Estimated odorant threshold, Mean [2]: 119.978 and 19.978
- Estimated odorant threshold, Minimum [2]: 2.619
- Mean estimated threshold ([2]; subjects with asthma (N=8)): 207.137
- Mean estimated threshold ([2]; subjects without asthma (N=18)): 86.084
- Effect on apnea [3]: significantly prevent apnea

SMILES: CCCCO [n-butanol, reference compound]
- Concentration causing irritation of the trigeminal nerve [1]: approximately 200 ppm

SMILES: CC(=O)OCCC(C)C [Isoamyl Acetate, isoamyl acetate]
- Threshold [2]: 38.274 ppm
- Mean A′ [2, 4]: 0.407
- Mean d′ [2, 4]: −0.249
- Mean A′ [2, 5]: 0.424
- Mean d′ [2, 5]: −0.198
- Mean A′ [2, 6]: 0.424
- Mean d′ [2, 6]: −0.198
- Mean A′ [2, 7]: 0.478
- Mean d′ [2, 7]: −0.053
- Mean A′ [2, 8]: 0.716
- Mean d′ [2, 8]: 0.704
- Mean A′ [2, 9]: 0.716
- Mean d′ [2, 9]: 0.704
- Mean A′ [2, 10]: 0.796
- Mean d′ [2, 10]: 1.11
- Mean A′ [2, 11]: 0.826
- Mean d′ [2, 11]: 1.299
- Mean A′ [2, 12]: 0.781
- Mean d′ [2, 12]: 1.024
- Estimated threshold compared with literature value [2]: below its literature value
- Estimated odorant threshold, Maximum [2]: 65.102
- Estimated odorant threshold, Mean [2]: 13.935
- Estimated odorant threshold, Minimum [2]: 0.513

SMILES: Cc1ccc(O)cc1 [para-cresol]
- Threshold [2]: 1.058 ppm
- Mean A′ [2, 4]: 0.356
- Mean d′ [2, 4]: −0.416
- Mean A′ [2, 5]: 0.561
- Mean d′ [2, 5]: 0.16
- Mean A′ [2, 6]: 0.614
- Mean d′ [2, 6]: 0.32
- Mean A′ [2, 7]: 0.614
- Mean d′ [2, 7]: 0.32
- Mean A′ [2, 8]: 0.313
- Mean d′ [2, 8]: 0.475
- Mean A′ [2, 9]: 0.804
- Mean d′ [2, 9]: 1.154
- Mean A′ [2, 10]: 0.847
- Mean d′ [2, 10]: 1.458
- Mean A′ [2, 11]: 0.84
- Mean d′ [2, 11]: 1.403
- Mean A′ [2, 12]: 0.908
- Mean d′ [2, 12]: 2.246
- Estimated threshold compared with literature value [2]: at or within literature values
- Estimated odorant threshold, Maximum [2]: 5.28
- Estimated odorant threshold, Mean [2]: 1.340
- Estimated odorant threshold, Minimum [2]: 0.005

SMILES: CCO [Ethanol, ethanol]
- Concentration causing irritation of the trigeminal nerve [1]: over 1000 ppm
- Mean estimated threshold ([2]; African Americans): 112.069
- Mean estimated threshold ([2]; Caucasians): 344.968
- Threshold [2]: 263.750 ppm
- Mean A′ [2, 4]: 0.757
- Mean d′ [2, 4]: 0.898
- Mean A′ [2, 5]: 0.716
- Mean d′ [2, 5]: 0.704
- Mean A′ [2, 6]: 0.514
- Mean d′ [2, 6]: 0.035
- Mean A′ [2, 7]: 0.741
- Mean d′ [2, 7]: 0.819
- Mean A′ [2, 8]: 0.561
- Mean d′ [2, 8]: 0.16
- Mean A′ [2, 9]: 0.766
- Mean d′ [2, 9]: 0.941
- Mean A′ [2, 10]: 0.668
- Mean d′ [2, 10]: 0.513
- Mean A′ [2, 11]: 0.789
- Mean d′ [2, 11]: 1.066
- Mean A′ [2, 12]: 0.804
- Mean d′ [2, 12]: 1.154
- Estimated threshold compared with literature value [2]: at or within literature values
- Estimated odorant threshold, Maximum [2]: 942.747
- Estimated odorant threshold, Mean [2]: 251.808
- Estimated odorant threshold, Minimum [2]: 1.057
- Mean estimated threshold ([2]; participants with headaches (N=8)): 396.631
- Mean estimated threshold ([2]; participants without headaches (N=12)): 155.260
